Cc1ccc(C(=O)O)cc1
solubility (mole fraction)
Conditions	278.15 K	283.15 K	288.15 K	293.15 K	298.15 K	303.15 K	308.15 K	313.15 K	318.15 K	323.15 K
in acetone	0.0354	0.041	0.0469	0.0544	0.062	0.0728	0.0838	0.0943	0.11	0.125
in acetonitrile	0.00596	0.0068	0.00776	0.0087	0.00976	0.0112	0.0127	0.0146	0.0163	0.0187
in ethanol	0.0272	0.0308	0.0346	0.0396	0.0442	0.05	0.0549	0.0603	0.0684	0.0765
in isopropanol	0.0397	0.0437	0.0488	0.0528	0.0588	0.0648	0.0715	0.0779	0.0868	0.0959
in methanol	0.0354	0.041	0.0485	0.0568	0.0636	0.0744	0.0865	0.0999	0.115	0.132
in n-butanol	0.0359	0.0396	0.0444	0.051	0.0578	0.0651	0.0735	0.0836	0.094	0.105
